# Experimental data: patent US9695155B2, “Herbicidal substituted pyrimidinyloxy benzene compounds” (E. I. DU PONT DE NEMOURS AND COMPANY, priority 2013, dated 2017)
# How the values were obtained:
# [1] = system: barnyardgrass; experiment: Test A preemergence; format: in vivo, Echinochloa crus-galli; settings: for Plant response rating, Barnyardgrass: 0 to 100 scale where 0 is no effect and 100 is complete control
# Summary of the method: (§1)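 Compounds in non-phytotoxic solvent with surfactant applied as soil spray preemergence, or postemergence to plants 2-10 cm at one- to two-leaf stage, in loam/sand. After approximately 10 days in greenhouse, injury rated visually versus untreated controls, 0 (no effect) to 100 (complete control).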
# [2] = system: kochia; experiment: Test A preemergence; format: in vivo, Kochia scoparia; settings: for Plant response rating, Kochia: 0 to 100 scale where 0 is no effect and 100 is complete control
# Summary of the method: as §1
# [3] = system: ragweed; experiment: Test A preemergence; format: in vivo, Ambrosia elatior; settings: for Plant response rating, Ragweed: 0 to 100 scale where 0 is no effect and 100 is complete control
# Summary of the method: as §1
# [4] = system: Italian ryegrass; experiment: Test A preemergence; format: in vivo, Lolium multiflorum; settings: for Plant response rating, Ryegrass, Italian: 0 to 100 scale where 0 is no effect and 100 is complete control
# Summary of the method: as §1
# [5] = system: giant foxtail; experiment: Test A preemergence; format: in vivo, Setaria faberii; settings: for Plant response rating, Foxtail, Giant: 0 to 100 scale where 0 is no effect and 100 is complete control
# Summary of the method: as §1
# [6] = system: pigweed; experiment: Test A preemergence; format: in vivo, Amaranthus retroflexus; settings: for Plant response rating, Pigweed: 0 to 100 scale where 0 is no effect and 100 is complete control
# Summary of the method: as §1
# [7] = system: barnyardgrass; experiment: Test A postemergence; format: in vivo, Echinochloa crus-galli; settings: for Plant response rating, Barnyardgrass: 0 to 100 scale, 0 no effect, 100 complete control
# Summary of the method: as §1
# [8] = system: kochia; experiment: Test A postemergence; format: in vivo, Kochia scoparia; settings: for Plant response rating, Kochia: 0 to 100 scale, 0 no effect, 100 complete control
# Summary of the method: as §1
# [9] = system: ragweed; experiment: Test A postemergence; format: in vivo, Ambrosia elatior; settings: for Plant response rating, Ragweed: 0 to 100 scale, 0 no effect, 100 complete control
# Summary of the method: as §1
# [10] = system: Italian ryegrass; experiment: Test A postemergence; format: in vivo, Lolium multiflorum; settings: for Plant response rating, Ryegrass, Italian: 0 to 100 scale, 0 no effect, 100 complete control
# Summary of the method: as §1
# [11] = system: giant foxtail; experiment: Test A postemergence; format: in vivo, Setaria faberii; settings: for Plant response rating, Foxtail, Giant: 0 to 100 scale, 0 no effect, 100 complete control
# Summary of the method: as §1
# [12] = system: pigweed; experiment: Test A postemergence; format: in vivo, Amaranthus retroflexus; settings: for Plant response rating, Pigweed: 0 to 100 scale, 0 no effect, 100 complete control
# Summary of the method: as §1
# [13] = system: wheat; experiment: Test A postemergence; format: in vivo, Triticum aestivum; settings: for Plant response rating, Wheat: 0 to 100 scale, 0 no effect, 100 complete control
# Summary of the method: as §1
# [14] = system: corn; experiment: Test A postemergence; format: in vivo, Zea mays; settings: for Plant response rating, Corn: 0 to 100 scale, 0 no effect, 100 complete control
# Summary of the method: as §1
# [15] = system: blackgrass; experiment: Test A postemergence; format: in vivo, Alopecurus myosuroides; settings: for Plant response rating, Blackgrass: 0 to 100 scale, 0 no effect, 100 complete control
# Summary of the method: as §1
# [16] = system: galium; experiment: Test A postemergence; format: in vivo, Galium aparine; settings: for Plant response rating, Galium: 0 to 100 scale, 0 no effect, 100 complete control
# Summary of the method: as §1
# [17] = system: rice; experiment: Test B flooded paddy test; format: in vivo, Oryza sativa; settings: Flood, 250 g ai/ha; 0 to 100 scale where 0 is no effect and 100 is complete control
# Summary of the method: (§2)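 Plants at 2-leaf stage; pots flooded to 3 cm above soil and compound applied directly into paddy water, depth held throughout. After 13 to 15 days in greenhouse, visual rating versus controls on 0 (no effect) to 100 (complete control) scale.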
# [18] = system: sedge, umbrella; experiment: Test B flooded paddy test; format: in vivo, Cyperus difformis; settings: Flood, 250 g ai/ha; 0 to 100 scale where 0 is no effect and 100 is complete control
# Summary of the method: as §2
# [19] = system: Heteranthera limosa; experiment: Test B flooded paddy test; format: in vivo; settings: Flood, 250 g ai/ha; 0 to 100 scale where 0 is no effect and 100 is complete control
# Summary of the method: as §2
# [20] = system: barnyardgrass; experiment: Test B flooded paddy test; format: in vivo, Echinochloa crus-galli; settings: Flood, 250 g ai/ha; 0 to 100 scale where 0 is no effect and 100 is complete control
# Summary of the method: as §2
# [21] = 31 g ai/ha, visual, approximately 10 days
# [22] = 125 g ai/ha, 0 to 100 scale where 0 is no effect and 100 is complete control
SMILES,"Plant response rating, Barnyardgrass [1, 21]","Plant response rating, Kochia [2, 21]","Plant response rating, Ragweed [3, 21]","Plant response rating, Ryegrass, Italian [4, 21]","Plant response rating, Foxtail, Giant [5, 21]","Plant response rating, Pigweed [6, 21]","Plant response rating, Barnyardgrass ([7]; 31 g ai/ha)","Plant response rating, Kochia ([8]; 31 g ai/ha)","Plant response rating, Ragweed ([9]; 31 g ai/ha)","Plant response rating, Ryegrass, Italian ([10]; 31 g ai/ha)","Plant response rating, Foxtail, Giant ([11]; 31 g ai/ha)","Plant response rating, Pigweed ([12]; 31 g ai/ha)","Plant response rating, Wheat ([13]; 31 g ai/ha)","Plant response rating, Corn ([14]; 31 g ai/ha)","Plant response rating, Blackgrass ([15]; 31 g ai/ha)","Plant response rating, Galium ([16]; 31 g ai/ha)","Plant response rating, Rice [17]","Plant response rating, Sedge, Umbrella [18]","Plant response rating, Ducksalad [19]","Plant response rating, Barnyardgrass [20]",also measured
Fc1cnc(Oc2ccccc2-n2cc(SC(F)(F)F)cn2)nc1 [Compound 247],0,0,0,0,0,0,0,20,0,0,0,10,0,0,0,10,0,50,65,0,"Barnyardgrass plant response rating (0 to 100 scale, 0 is no effect, 100 is complete control) ([1]; 125 g ai/ha): 70; Kochia plant response rating (0 to 100 scale) ([2]; 125 g ai/ha): 60; Ragweed plant response rating (0 to 100 scale) ([3]; 125 g ai/ha): 0; Ryegrass, Italian plant response rating (0 to 100 scale) ([4]; 125 g ai/ha): 0; Foxtail, Giant plant response rating (0 to 100 scale) ([5]; 125 g ai/ha): 100; Pigweed plant response rating (0 to 100 scale) ([6]; 125 g ai/ha): 80; Plant response rating, Barnyardgrass ([7]; 125 g ai/ha): 20; Plant response rating, Kochia ([8]; 125 g ai/ha): 40; Plant response rating, Ragweed ([9]; 125 g ai/ha): 0; Plant response rating, Ryegrass, Italian ([10]; 125 g ai/ha): 0; Plant response rating, Foxtail, Giant ([11]; 125 g ai/ha): 10; Plant response rating, Pigweed ([12]; 125 g ai/ha): 20; Plant response rating, Wheat ([13]; 125 g ai/ha): 20; Plant response rating, Corn ([14]; 125 g ai/ha): 20; Plant response rating, Blackgrass ([15]; 125 g ai/ha): 40; Plant response rating, Galium ([16]; 125 g ai/ha): 30"
FCc1cccc(Oc2ncc(Br)cn2)c1-n1cc(Cl)cn1 [Compound 251],30,10,0,0,50,70,10,40,10,0,30,60,0,0,50,20,0,40,75,0,"Barnyardgrass plant response rating (0 to 100 scale, 0 is no effect, 100 is complete control) ([1]; 125 g ai/ha): 50; Kochia plant response rating (0 to 100 scale) ([2]; 125 g ai/ha): 70; Ragweed plant response rating (0 to 100 scale) ([3]; 125 g ai/ha): 30; Ryegrass, Italian plant response rating (0 to 100 scale) ([4]; 125 g ai/ha): 0; Foxtail, Giant plant response rating (0 to 100 scale) ([5]; 125 g ai/ha): 80; Pigweed plant response rating (0 to 100 scale) ([6]; 125 g ai/ha): 90; Plant response rating, Barnyardgrass ([7]; 125 g ai/ha): 30; Plant response rating, Kochia ([8]; 125 g ai/ha): 60; Plant response rating, Ragweed ([9]; 125 g ai/ha): 20; Plant response rating, Ryegrass, Italian ([10]; 125 g ai/ha): 10; Plant response rating, Foxtail, Giant ([11]; 125 g ai/ha): 60; Plant response rating, Pigweed ([12]; 125 g ai/ha): 70; Plant response rating, Wheat ([13]; 125 g ai/ha): 0; Plant response rating, Corn ([14]; 125 g ai/ha): 20; Plant response rating, Blackgrass ([15]; 125 g ai/ha): 70; Plant response rating, Galium ([16]; 125 g ai/ha): 30"
FCc1cccc(Oc2ncc(Br)cn2)c1-n1cc(I)cn1 [Compound 244],0,0,0,0,0,0,0,20,0,0,0,20,0,0,0,70,0,0,40,0,"Barnyardgrass plant response rating (0 to 100 scale, 0 is no effect, 100 is complete control) ([1]; 125 g ai/ha): 20; Kochia plant response rating (0 to 100 scale) ([2]; 125 g ai/ha): 40; Ragweed plant response rating (0 to 100 scale) ([3]; 125 g ai/ha): 0; Ryegrass, Italian plant response rating (0 to 100 scale) ([4]; 125 g ai/ha): 0; Foxtail, Giant plant response rating (0 to 100 scale) ([5]; 125 g ai/ha): 80; Pigweed plant response rating (0 to 100 scale) ([6]; 125 g ai/ha): 100; Plant response rating, Barnyardgrass ([7]; 125 g ai/ha): 10; Plant response rating, Kochia ([8]; 125 g ai/ha): 80; Plant response rating, Ragweed ([9]; 125 g ai/ha): 0; Plant response rating, Ryegrass, Italian ([10]; 125 g ai/ha): 0; Plant response rating, Foxtail, Giant ([11]; 125 g ai/ha): 10; Plant response rating, Pigweed ([12]; 125 g ai/ha): 100; Plant response rating, Wheat ([13]; 125 g ai/ha): 20; Plant response rating, Corn ([14]; 125 g ai/ha): 20; Plant response rating, Blackgrass ([15]; 125 g ai/ha): 30; Plant response rating, Galium ([16]; 125 g ai/ha): 100"
CC(C)Oc1cnn(-c2c(C#N)cccc2Oc2ncc(Cl)cn2)c1 [Compound 149],40,70,0,0,60,100,20,60,50,0,20,60,0,0,50,70,0,65,70,0,"Plant response rating, Barnyardgrass ([1]; 125 g ai/ha): 90; Plant response rating, Kochia ([2]; 125 g ai/ha): 100; Plant response rating, Ragweed ([3]; 125 g ai/ha): 60; Plant response rating, Ryegrass, Italian ([4]; 125 g ai/ha): 20; Plant response rating, Foxtail, Giant ([5]; 125 g ai/ha): 100; Plant response rating, Pigweed ([6]; 125 g ai/ha): 100; Barnyardgrass plant response rating [7, 22]: 70; Kochia plant response rating [8, 22]: 70; Ragweed plant response rating [9, 22]: 80; Ryegrass, Italian plant response rating [10, 22]: 30; Foxtail, Giant plant response rating [11, 22]: 90; Pigweed plant response rating [12, 22]: 100; Wheat plant response rating [13, 22]: 0; Corn plant response rating [14, 22]: 20; Blackgrass plant response rating [15, 22]: 80; Galium plant response rating [16, 22]: 100"
